Source: paper PMC6368403, “Identification of a bilirubin receptor that may mediate a component of cholestatic itch” (eLife, 2019)

Assays:
[1] = molecular target: T1, MRGPRX4 (Homo sapiens, UniProt Q96LA9); assay: Ca2+ imaging and concentration-Ca2+ response (EC50) in HEK293 cells expressing MRGPRX4; assay type: cell-based
T1 construct: expressed in transfected cells
Method in brief: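 HEK293 cells stably expressing the mouse or human receptor, loaded with Fura 2-AM 30 min at 37 °C, imaged in HEPES-buffered CIB pH 7.4 (340/380 nm excitation, 510 nm emission). Haem metabolites diluted from DMSO into 20 mM Tris, 150 mM NaCl pH 8.8. EC50 from triplicate dose-responses, repeated 2–4 times.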

[2] = molecular target: T2, MRGPRA1 (Mus musculus, UniProt Q91WW5); assay: Microscale thermophoresis binding to MRGPRA1; design: Transformed binding isotherm (mean of three experiments): unit not given here; conditions: for Transformed binding isotherm (mean of three experiments): MRGPRA1 (Fig 2E)
T2 construct: expressed in transfected cells
T2 sequence (Q91WW5 1-304): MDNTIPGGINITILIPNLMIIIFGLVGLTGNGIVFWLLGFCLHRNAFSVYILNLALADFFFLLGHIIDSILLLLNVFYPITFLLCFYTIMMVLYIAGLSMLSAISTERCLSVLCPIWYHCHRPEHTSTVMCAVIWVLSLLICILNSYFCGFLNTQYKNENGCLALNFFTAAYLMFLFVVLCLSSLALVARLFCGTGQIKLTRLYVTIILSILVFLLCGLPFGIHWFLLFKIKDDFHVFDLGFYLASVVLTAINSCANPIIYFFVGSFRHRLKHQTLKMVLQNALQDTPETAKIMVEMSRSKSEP
Protocol: (§1) Binding isotherms for MRGPRA1, MRGPRX4, and MRGRPC11 towards various ligands were determined by microscale thermophoresis with the NanoTemper monolith NT.115 instrument ([Duhr and Braun, 2006]). Ligands were pre-incubated with 10 µM of the GFP-tagged receptor of interest for 5 min at room temperature in binding buffer (20 mM Tris and 150 mM NaCl at pH 8.8). Receptors were crudely purified as a membrane fraction from cells stably expressing the receptor ([Vasavda et al., 2017]). Haem metabolites were freshly dissolved in 0.1 M NaOH in dim light and then diluted into assay buffer. Lyophilized BAM8-22 was dissolved in binding buffer. The pH of each ligand was evaluated prior to incubation with a receptor. Samples were loaded into NT.115 Hydrophobic-Treated Capillaries from NanoTemper. Microscale thermophoretic experiments were executed using 20% LED power and 15% MST power. KDs were calculated using the law of mass action with data from three independent experiments. Binding between bilirubin and receptors was evaluated purely thermophoretically, whereas binding between BAM8-22 and MRGPRC11 was evaluated by T-Jump. Samples with dramatic deviations in initial fluorescence were excluded.

[3] = molecular target: T1, MRGPRX4; assay: Microscale thermophoresis binding to MRGPRX4; design: microscale thermophoresis response (binding isotherm), mean: unit not given here; conditions: for microscale thermophoresis response (binding isotherm), mean: mean of n=3, Fig 2-J
Protocol: as §1

T1 sequence (Q96LA9 whole entry): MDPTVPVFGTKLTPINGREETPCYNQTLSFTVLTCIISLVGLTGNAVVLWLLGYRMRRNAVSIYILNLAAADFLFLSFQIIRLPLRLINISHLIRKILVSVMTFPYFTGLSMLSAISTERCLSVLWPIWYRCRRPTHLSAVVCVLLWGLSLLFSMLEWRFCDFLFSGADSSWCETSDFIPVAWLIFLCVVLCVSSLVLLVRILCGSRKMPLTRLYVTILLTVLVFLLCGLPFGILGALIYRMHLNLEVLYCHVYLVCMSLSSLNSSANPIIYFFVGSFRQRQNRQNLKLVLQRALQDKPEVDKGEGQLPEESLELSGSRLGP

## hemin
[1]
  Calcium response / activation of MRGPRX4-expressing cells: had no effect
[2]; [Ligand] 3.05e-8 M
  Transformed binding isotherm (mean of three experiments): 0
[2]; [Ligand] 6.1e-8 M
  Transformed binding isotherm (mean of three experiments): 0
[2]; [Ligand] 1.221e-7 M
  Transformed binding isotherm (mean of three experiments): 0
[2]; [Ligand] 2.441e-7 M
  Transformed binding isotherm (mean of three experiments): 0
[2]; [Ligand] 4.883e-7 M
  Transformed binding isotherm (mean of three experiments): 0
[2]; [Ligand] 9.766e-7 M
  Transformed binding isotherm (mean of three experiments): 0
[2]; [Ligand] 1.9531e-6 M
  Transformed binding isotherm (mean of three experiments): 0
[2]; [Ligand] 3.9063e-6 M
  Transformed binding isotherm (mean of three experiments): 0
[2]; [Ligand] 7.8125e-6 M
  Transformed binding isotherm (mean of three experiments): 0
[2]; [Ligand] 1.5625e-5 M
  Transformed binding isotherm (mean of three experiments): 0
[2]; [Ligand] 3.125e-5 M
  Transformed binding isotherm (mean of three experiments): 0
[2]; [Ligand] 6.25e-5 M
  Transformed binding isotherm (mean of three experiments): 0
[2]; [Ligand] 0.000125 M
  Transformed binding isotherm (mean of three experiments): 0
[2]; [Ligand] 0.00025 M
  Transformed binding isotherm (mean of three experiments): 0
[2]; [Ligand] 0.0005 M
  Transformed binding isotherm (mean of three experiments): 0
[2]; microscale thermophoresis
  Binding to MRGPRA1: did not bind
[3]; [Ligand] 3.05e-8 M
  microscale thermophoresis response (binding isotherm), mean: 0
[3]; [Ligand] 6.1e-8 M
  microscale thermophoresis response (binding isotherm), mean: 0
[3]; [Ligand] 1.221e-7 M
  microscale thermophoresis response (binding isotherm), mean: 0
[3]; [Ligand] 2.441e-7 M
  microscale thermophoresis response (binding isotherm), mean: 0
[3]; [Ligand] 4.883e-7 M
  microscale thermophoresis response (binding isotherm), mean: 0
[3]; [Ligand] 9.766e-7 M
  microscale thermophoresis response (binding isotherm), mean: 0
[3]; [Ligand] 1.9531e-6 M
  microscale thermophoresis response (binding isotherm), mean: 0
[3]; [Ligand] 3.9063e-6 M
  microscale thermophoresis response (binding isotherm), mean: 0
[3]; [Ligand] 7.8125e-6 M
  microscale thermophoresis response (binding isotherm), mean: 0
[3]; [Ligand] 1.5625e-5 M
  microscale thermophoresis response (binding isotherm), mean: 0
[3]; [Ligand] 3.125e-5 M
  microscale thermophoresis response (binding isotherm), mean: 0
[3]; [Ligand] 6.25e-5 M
  microscale thermophoresis response (binding isotherm), mean: 0
[3]; [Ligand] 0.000125 M
  microscale thermophoresis response (binding isotherm), mean: 0
[3]; [Ligand] 0.00025 M
  microscale thermophoresis response (binding isotherm), mean: 0
[3]; [Ligand] 0.0005 M
  microscale thermophoresis response (binding isotherm), mean: 0
[3]; microscale thermophoresis
  Binding to MRGPRX4: did not bind
